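Five compound concentrations were applied to cells in 96-well plates for 48 hours; endpoints were derived by simple linear interpolation of the resulting dose-response curve. GI50 marks 50% less growth.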 Activity calls are given as the source filed them. Rule as the data show it: active = GI50 up to about 1.1 µM and inactive = higher. Where a SMILES comes first, the peptide text is derived from it. [ ]: non-standard residue; d: D form. The star is where a group is joined. Bn2Val = CC(C)[C@@H](C(=O)*)N(Cc1ccccc1)Cc1ccccc1; NH(4-F-benzyl) = Fc1ccc(CN*)cc1; NMeV = CN[C@H](C(=O)O)C(C)C; dNMeA = CN[C@H](C)C(=O)O
Experiments:
Test in all cases: DTP human tumour cell line panel, 48 h
OVCAR-3 = test system: OVCAR-3
SF-268 = test system: SF-268
SNB-75 = test system: SNB-75
SK-OV-3 = test system: SK-OV-3
A498 = test system: A498
SF-539 = test system: SF-539
NCI-H226 = test system: NCI-H226
HL-60 = test system: HL-60
TK-10 = test system: TK-10
M14 = test system: M14
HOP-62 = test system: HOP-62
HOP-92 = test system: HOP-92
HCT-15 = test system: HCT-15
MCF7 = test system: MCF7
OVCAR-8 = test system: OVCAR-8
IGROV-1 = test system: IGROV-1
COLO 205 = test system: COLO 205
A549 = test system: A549
SK-MEL-5 = test system: SK-MEL-5
K562 = test system: K562

| SMILES | GI50 (OVCAR-3) | GI50 (SF-268) | GI50 (SNB-75) | GI50 (SK-OV-3) | GI50 (A498) | GI50 (SF-539) | GI50 (NCI-H226) | GI50 (HL-60) | GI50 (TK-10) | GI50 (M14) | GI50 (HOP-62) | GI50 (HOP-92) | GI50 (HCT-15) [µM] | GI50 (MCF7) | GI50 (OVCAR-8) | GI50 (IGROV-1) | GI50 (COLO 205) | GI50 (A549) | GI50 (SK-MEL-5) | GI50 (K562) |
| --- | --- | --- | --- | --- | --- | --- | --- | --- | --- | --- | --- | --- | --- | --- | --- | --- | --- | --- | --- | --- |
| O=C1/C(=C\c2ccc([N+](=O)[O-])cc2)CS(=O)(=O)C/C1=C/c1ccc([N+](=O)[O-])cc1 | 0.141 µM (active) | 0.773 µM (active) | 15.5 µM (inactive) | 4.8 µM (inactive) | 1.79 µM (inactive) | 0.189 µM (active) | 2.83 µM (inactive) | 0.324 µM (active) | 0.787 µM (active) | 0.74 µM (active) | 1.23 µM (inactive) | 1.91 µM (inactive) | 0.117 | 0.303 µM (active) | 0.107 µM (active) | 0.641 µM (active) | 0.188 µM (active) | 1.85 µM (inactive) | 1.4 µM (inactive) | – |
| C(=N\NC1=NCCCN1)/c1ccc(-c2cn3cc(/C=N/NC4=NCCCN4)ccc3n2)cc1 | > 100 µM (inactive) | > 100 µM (inactive) | > 81.5 µM (inactive) | > 100 µM (inactive) | > 41.7 µM (inactive) | > 61.7 µM (inactive) | 45.3 µM (inactive) | 20.7 µM (inactive) | > 100 µM (inactive) | > 81.1 µM (inactive) | > 79.8 µM (inactive) | 59 µM (inactive) | > 100 | 32 µM (inactive) | > 50.2 µM (inactive) | 50.6 µM (inactive) | > 100 µM (inactive) | 24.6 µM (inactive) | > 100 µM (inactive) | 38.4 µM (inactive) |
| COc1ccc(CNC(=O)[C@H](Cc2ccc(O)cn2)NC(C)=O)cc1OC | > 100 µM (inactive) | > 90.6 µM (inactive) | > 100 µM (inactive) | > 100 µM (inactive) | > 100 µM (inactive) | > 100 µM (inactive) | > 100 µM (inactive) | > 100 µM (inactive) | > 100 µM (inactive) | > 100 µM (inactive) | > 100 µM (inactive) | > 100 µM (inactive) | > 100 | > 100 µM (inactive) | > 100 µM (inactive) | > 100 µM (inactive) | > 100 µM (inactive) | > 100 µM (inactive) | > 100 µM (inactive) | > 100 µM (inactive) |
| COC(=O)C1=CS/C(=C2\S[C@@H]3[C@H](S2)[C@H]2C=C[C@@H]3C2)S1 | 33.2 µM (inactive) | 38.7 µM (inactive) | 46.1 µM (inactive) | 47 µM (inactive) | 4.52 µM (inactive) | 6.19 µM (inactive) | 87.7 µM (inactive) | 9.82 µM (inactive) | > 100 µM (inactive) | 48.3 µM (inactive) | > 100 µM (inactive) | 79.8 µM (inactive) | 17.3 | 10.9 µM (inactive) | > 100 µM (inactive) | 39.2 µM (inactive) | 32.8 µM (inactive) | 30.8 µM (inactive) | 17.9 µM (inactive) | 2.74 µM (inactive) |
| CC1=NN=C(C)C1/N=N/c1ccc2[nH]c(C)nc2c1 | 13.4 µM (inactive) | 10.9 µM (inactive) | 22.9 µM (inactive) | 5.27 µM (inactive) | 8.39 µM (inactive) | 26.9 µM (inactive) | 3.84 µM (inactive) | 10.8 µM (inactive) | 14.1 µM (inactive) | 23.1 µM (inactive) | 26.4 µM (inactive) | 14.8 µM (inactive) | 6.68 | 28.7 µM (inactive) | 15.9 µM (inactive) | 5.62 µM (inactive) | 29.6 µM (inactive) | 27.4 µM (inactive) | 18.2 µM (inactive) | > 69.2 µM (inactive) |
| Nc1ncnc2c1nc(Cl)n2C1OC(CO)C(O)C1O (stereo not drawn) | 2.75 µM (inactive) | 12.2 µM (inactive) | 1.49 µM (inactive) | 2.74 µM (inactive) | 4.52 µM (inactive) | 4.69 µM (inactive) | 1.63 µM (inactive) | 0.181 µM (active) | 0.502 µM (active) | 0.9 µM (active) | 8.28 µM (inactive) | 9.08 µM (inactive) | 0.283 | 0.562 µM (active) | 1.11 µM (active) | 0.653 µM (active) | 1.11 µM (active) | 0.991 µM (active) | 3.25 µM (inactive) | 0.347 µM (active) |
| [O-][n+]1ccccc1Sc1nc(Sc2cccc[n+]2[O-])nc(Sc2cccc[n+]2[O-])n1 | 1.58 µM (inactive) | 2.99 µM (inactive) | 4.2 µM (inactive) | 7.24 µM (inactive) | 2.82 µM (inactive) | 2.06 µM (inactive) | 2.42 µM (inactive) | 0.1 µM (active) | 1.76 µM (inactive) | 1.26 µM (inactive) | 2.98 µM (inactive) | 1.28 µM (inactive) | 1.38 | 0.778 µM (active) | 0.569 µM (active) | 0.54 µM (active) | 0.386 µM (active) | 2.99 µM (inactive) | 1.31 µM (inactive) | 0.279 µM (active) |
| O=NN(CCCl)C(=O)N[C@H]1CC[C@@H](C(=O)O)CC1 | > 100 µM (inactive) | 32.8 µM (inactive) | > 72.3 µM (inactive) | > 100 µM (inactive) | > 100 µM (inactive) | 29.6 µM (inactive) | > 100 µM (inactive) | 33.7 µM (inactive) | > 100 µM (inactive) | > 100 µM (inactive) | 83 µM (inactive) | > 76 µM (inactive) | > 100 | > 100 µM (inactive) | > 100 µM (inactive) | > 100 µM (inactive) | > 100 µM (inactive) | 89.7 µM (inactive) | > 100 µM (inactive) | 91 µM (inactive) |
| O=C1c2c(Cl)c(Cl)c(Cl)c(Cl)c2C(=O)N1CCN(c1c(Cl)ssc1=O)c1c(Cl)ssc1=O | 18.7 µM (inactive) | 71.9 µM (inactive) | 31.6 µM (inactive) | > 100 µM (inactive) | > 100 µM (inactive) | 19.1 µM (inactive) | > 100 µM (inactive) | 30.2 µM (inactive) | 18.7 µM (inactive) | 21.5 µM (inactive) | > 100 µM (inactive) | 20.1 µM (inactive) | 19.5 | 19.6 µM (inactive) | 21.7 µM (inactive) | 46.2 µM (inactive) | 18.2 µM (inactive) | > 100 µM (inactive) | > 100 µM (inactive) | 20.7 µM (inactive) |
| OC1c2ccccc2CC12Cc1ccccc1C2 (stereo not drawn) | 90.2 µM (inactive) | > 100 µM (inactive) | 61.4 µM (inactive) | > 100 µM (inactive) | > 100 µM (inactive) | > 100 µM (inactive) | 0.35 µM (active) | 74.1 µM (inactive) | > 100 µM (inactive) | > 100 µM (inactive) | > 100 µM (inactive) | 64 µM (inactive) | > 100 | > 100 µM (inactive) | > 100 µM (inactive) | > 100 µM (inactive) | 31.2 µM (inactive) | 99.5 µM (inactive) | 22.6 µM (inactive) | 72.4 µM (inactive) |
| Nc1[nH]c(=S)[nH]c(=O)c1/N=N/c1c(Br)cc(S(N)(=O)=O)cc1Br | > 100 µM (inactive) | > 100 µM (inactive) | 35.7 µM (inactive) | > 100 µM (inactive) | > 100 µM (inactive) | > 100 µM (inactive) | > 100 µM (inactive) | > 100 µM (inactive) | > 100 µM (inactive) | > 100 µM (inactive) | > 100 µM (inactive) | > 100 µM (inactive) | > 100 | > 100 µM (inactive) | > 100 µM (inactive) | > 100 µM (inactive) | > 100 µM (inactive) | > 100 µM (inactive) | > 100 µM (inactive) | > 100 µM (inactive) |
| CN(NC(=O)CCCl)C1=NCCCCN1 | > 100 µM (inactive) | > 100 µM (inactive) | > 100 µM (inactive) | > 100 µM (inactive) | > 100 µM (inactive) | > 100 µM (inactive) | > 100 µM (inactive) | > 100 µM (inactive) | > 100 µM (inactive) | > 100 µM (inactive) | > 100 µM (inactive) | > 100 µM (inactive) | > 100 | > 100 µM (inactive) | > 100 µM (inactive) | > 100 µM (inactive) | > 100 µM (inactive) | > 100 µM (inactive) | > 100 µM (inactive) | > 100 µM (inactive) |
| CC(C)[C@H](NC(=O)[C@H](C(C)C)N(Cc1ccccc1)Cc1ccccc1)C(=O)N(C)[C@H](C(=O)N1CCC[C@H]1C(=O)N(C)[C@H](C)C(=O)NCc1ccc(F)cc1)C(C)C (Bn2Val-V[NMeV]P[dNMeA]-{NH(4-F-benzyl)}) | 2.88 µM (inactive) | 3.19 µM (inactive) | 4.07 µM (inactive) | 5.35 µM (inactive) | 2.42 µM (inactive) | 2.71 µM (inactive) | 2.65 µM (inactive) | 2.54 µM (inactive) | 5.48 µM (inactive) | 3.05 µM (inactive) | 5.47 µM (inactive) | 2.97 µM (inactive) | 3.79 | 2.72 µM (inactive) | 4.01 µM (inactive) | 3.19 µM (inactive) | 1.74 µM (inactive) | 3.3 µM (inactive) | 2.22 µM (inactive) | 3.78 µM (inactive) |
| N#C[C@@]12CCCC(=O)[C@@H]1[C@H]1CCC[C@H]12 | 10.3 µM (inactive) | – | 13.7 µM (inactive) | 14.7 µM (inactive) | 17.1 µM (inactive) | 23.7 µM (inactive) | 20.7 µM (inactive) | 8.22 µM (inactive) | 19.9 µM (inactive) | 12.9 µM (inactive) | 15.2 µM (inactive) | 11.5 µM (inactive) | 16.3 | 16.4 µM (inactive) | 21.6 µM (inactive) | 16.5 µM (inactive) | 20 µM (inactive) | 16.7 µM (inactive) | 15.8 µM (inactive) | 17.7 µM (inactive) |
